Results as given in ChEMBL document CHEMBL3886297, “Cinnamoyl inhibitors of transglutaminase” (2015).

Molecular target: T1, Protein-glutamine gamma-glutamyltransferase 2 (Cavia cutleri, UniProt P08587)
T1 sequence (P08587 whole entry): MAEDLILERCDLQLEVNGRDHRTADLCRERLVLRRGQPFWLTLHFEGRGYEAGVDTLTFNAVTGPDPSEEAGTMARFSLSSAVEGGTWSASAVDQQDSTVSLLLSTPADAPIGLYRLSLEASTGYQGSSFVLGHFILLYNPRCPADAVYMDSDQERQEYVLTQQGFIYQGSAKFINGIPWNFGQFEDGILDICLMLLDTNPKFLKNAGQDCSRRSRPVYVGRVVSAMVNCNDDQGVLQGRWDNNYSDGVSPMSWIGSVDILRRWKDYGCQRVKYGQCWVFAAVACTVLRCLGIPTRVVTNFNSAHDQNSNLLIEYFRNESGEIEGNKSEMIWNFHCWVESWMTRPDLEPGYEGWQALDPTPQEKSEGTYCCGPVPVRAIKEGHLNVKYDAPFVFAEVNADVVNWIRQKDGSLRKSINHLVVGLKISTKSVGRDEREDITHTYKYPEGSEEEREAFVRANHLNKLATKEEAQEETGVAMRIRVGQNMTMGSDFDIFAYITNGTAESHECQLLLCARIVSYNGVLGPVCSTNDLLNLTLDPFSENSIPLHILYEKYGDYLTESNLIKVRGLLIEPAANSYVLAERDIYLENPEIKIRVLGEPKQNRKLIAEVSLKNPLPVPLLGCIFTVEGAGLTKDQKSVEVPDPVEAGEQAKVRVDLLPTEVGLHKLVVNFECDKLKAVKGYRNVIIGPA
Assay: Enzyme Inhibition Assay: For enzymology studies of these compounds, recombinant guinea pig liver TGase was expressed in Escherichia coli and effectively purified (Gillet, S. M. F. G. et al J. N., Prot. Exp. & Purif. 2004, 33, 256). […] The mode of inhibition was determined for the representative lead compound.

Row | SMILES | IC50 [µM]
1 | O=C(/C=C/c1ccc([N+](=O)[O-])cc1)n1ccnc1 | > 20
2 | O=C(/C=C/c1ccc([N+](=O)[O-])cc1)NCc1ccccc1 | > 50
